Assay results published in patent US8916702B2 (priority 2012, dated 2014).
Where two headings read alike, the source gives them in different places.

Tested on: HCV pseudoparticles (genotype 1a HCV E1 and E2 envelope, H77C isolate)
Assay: microbe, parasite or virus in culture
Type: cell-based
Conditions: Hepatitis C virus
[1] = Huh-7, 48 h, read-out: Activity (EC50 class), HCV pseudoparticle infection of Huh7 cells, luciferase 2 days after infection, EC50 expressed as class A/B
[2] = Huh-7, read-out: Activity (EC50 class), HCV pseudoparticles (genotype 1a, H77C) in Huh7 cells, EC50 expressed as class A/B
[3] = Huh-7, 48 h, HCV pseudoparticles (genotype 1a, H77C) in Huh7 cells, average of duplicate, luciferase 2 days after infection
[4] = Huh-7, 48 h, read-out: Activity (EC50 class), HCV pseudoparticles, Huh7 cells, luciferase 2 days after infection, average of duplicates
[5] = Huh-7, 48 h, HCV pseudoparticle infection of Huh7 cells, luciferase 2 days after infection, average of duplicates

Row | SMILES | EC50 [1] [pM] | EC50 [2] [pM] | also measured
1 | CCOC(=O)[C@H](CCCNC(=O)C(N)=O)NC(=O)c1ccc(Nc2nc(NC3(c4ccc(Cl)cc4)CC3)nc(OCC(F)(F)F)n2)cc1 [Compound 1029, (S)-ethyl 5-(2-amino-2-oxoacetamido)-2-(4-(4-(1-(4-chlorophenyl)cyclopropylamino)-6-(2,2,2-trifluoroethoxy)-1,3,5-triazin-2-ylamino)benzamido)pentanoate] | 10 to 10000 | – | –
2 | CC1CCCCC1NC(=O)C(=O)NC[C@H](NC(=O)c1ccc(Nc2nc(NC3(c4ccc(Cl)cc4)CC3)nc(OCC(F)(F)F)n2)cc1)C(=O)O (stereo partly shown) [Compound 1089] | 10 to 10000 | – | –
3 | CC(C)(CNC(=O)C(=O)Nc1ccc(C#N)cc1F)CNC(=O)c1ccc(Nc2nc(NC3(c4ccc(Cl)cc4)CC3)nc(OCC(F)(F)F)n2)cc1 [Compound 3383] | – | 10 to 10000 | –
4 | COC(=O)[C@H](CNC(=O)C(=O)Nc1ccc(N2CCN(C(C)=O)CC2)cc1)NC(=O)c1ccc(Nc2nc(NC3(c4ccc(Cl)cc4)CC3)nc(OCC(F)(F)F)n2)cc1 [Compound 3186] | – | 10 to 10000 | EC50 [3]: 700 pM
5 | CC(C)(CNC(=O)C(=O)Nc1nc2c(s1)CCCC2)CNC(=O)c1ccc(Nc2nc(NC3(c4ccc(Cl)cc4)CC3)nc(OCC(F)(F)F)n2)cc1 [Compound 3350] | – | 10 to 10000 | –
6 | O=C(NCCNC(=O)c1ccc(Nc2nc(NC3(c4ccc(Cl)cc4)CC3)nc(OCC(F)(F)F)n2)cc1)C(=O)NCc1ccc(F)cc1 [Compound 3370] | – | 10 to 10000 | –
7 | CC(=O)c1cccc(NC(=O)C(=O)NCC(C)(C)CNC(=O)c2ccc(Nc3nc(NC4(c5ccc(Cl)cc5)CC4)nc(OCC(F)(F)F)n3)cc2)c1 [Compound 3668] | – | – | EC50 [4]: 10 to 10000 pM
8 | Cc1ccc(NC(=O)C(=O)NCC(C)(C)CNC(=O)c2ccc(Nc3nc(NC4(c5ccc(Cl)cc5)CC4)nc(OCC(F)(F)F)n3)cc2)cc1 [Compound 1536] | 10 to 10000 | – | –
9 | COC(=O)[C@H](CCNC(=O)C(=O)Nc1ccc(Cn2cccn2)cc1)NC(=O)c1ccc(Nc2nc(NC3(c4ccc(Cl)cc4)CC3)nc(OCC(F)(F)F)n2)cc1 [Compound 3312] | – | 10 to 10000 | –
10 | COc1cccc(NC(=O)C(=O)NCC[C@H](NC(=O)c2ccc(Nc3nc(NC4(c5ccc(Cl)cc5)CC4)nc(OCC(F)(F)F)n3)cc2)C(=O)O)c1 [Compound 1270] | 10 to 10000 | – | EC50 [5]: 130 pM
11 | CC(C)c1ccc(COc2nc(Nc3ccc(C(=O)NCC(C)(C)CNC(=O)C(=O)Nc4ccccc4-c4ccccc4)c(F)c3)nc(NC3(c4ccc(Cl)cc4)CC3)n2)cc1 [Compound 3830, N^1-([1, 1′-biphenyl]-2-yl)-N^2-(3-(4-((4-((1-(4-chlorophenyl)cyclopropyl)amino)-6-((4-isopropylbenzyl)oxy)-1,3,5-triazin-2-yl)amino)-2-fluorobenzamido)-2,2-dimethylpropyl)oxalamide] | – | – | EC50 [4]: 10 to 10000 pM
12 | CCc1ccc(NC(=O)C(=O)NCC[C@H](NC(=O)c2ccc(Nc3nc(NC4(c5ccc(Cl)cc5)CC4)nc(OCC(F)(F)F)n3)cc2)C(=O)OC)cc1 [Compound 3330] | – | 10 to 10000 | –
13 | CC(C)(CNC(=O)C(=O)Nc1nc2cc(F)ccc2s1)CNC(=O)c1ccc(Nc2nc(NC3(c4ccc(Cl)cc4)CC3)nc(OCC(F)(F)F)n2)cc1 [Compound 3810] | – | – | EC50 [4]: 10 to 10000 pM
14 | Cc1ccc(CNC(=O)C(=O)NCC[C@H](NC(=O)c2ccc(Nc3nc(NC4(c5ccc(Cl)cc5)CC4)nc(OCC(F)(F)F)n3)cc2)C(=O)O)c(F)c1 [Compound 1188] | 10 to 10000 | – | –
15 | O=C(Cc1nccs1)C(=O)NCC(O)CNC(=O)c1ccc(Nc2nc(NC3(c4ccc(Cl)cc4)CC3)nc(OCC(F)(F)F)n2)cc1 (stereo not shown) [Compound 3462] | – | 10 to 10000 | –
16 | O=C(NCC[C@H](NC(=O)c1ccc(Nc2nc(NC3(c4ccc(Cl)cc4)CC3)nc(OCC(F)(F)F)n2)cc1)C(=O)O)C(=O)Nc1ccc(F)cc1 [Compound 1272] | 10 to 10000 | – | –
17 | Cn1ccc(NC(=O)C(=O)NCC(C)(C)CNC(=O)c2ccc(Nc3nc(NC4(c5ccc(Cl)cc5)CC4)nc(OCC(F)(F)F)n3)cc2F)n1 [Compound 3567] | – | 10 to 10000 | EC50 [3]: 35 pM

Row | SMILES | EC50 [1] [pM] | EC50 [2] [pM] | also measured
18 | O=C(NCC[C@H](NC(=O)c1ccc(Nc2nc(NC3(c4ccc(Cl)cc4)CC3)nc(OCC(F)(F)F)n2)cc1)C(=O)O)C(=O)Nc1cccc(Cc2ccccn2)c1 [Compound 3650] | – | – | EC50 [4]: 10 to 10000 pM
19 | O=C(NCC[C@H](NC(=O)c1ccc(Nc2nc(NC3(c4ccc(Cl)cc4)CC3)nc(OCC(F)(F)F)n2)cc1)C(=O)O)C(=O)Nc1ccc(N2CCCC2=O)cc1 [Compound 3227] | – | 10 to 10000 | –
20 | O=C(Nc1ccc(F)cc1F)C(=O)N1CCCC(CNC(=O)c2ccc(Nc3nc(NC4(c5ccc(Cl)cc5)CC4)nc(OCC(F)(F)F)n3)cc2)C1 (stereo not shown) [Compound 3484] | – | 10 to 10000 | –
21 | CN(CCCN(C)C(=O)c1ccc(Nc2nc(NC3(c4ccc(Cl)cc4)CC3)nc(OCC(F)(F)F)n2)cc1)C(=O)C(=O)Nc1nccs1 [Compound 3430] | – | 10 to 10000 | EC50 [3]: 1450 pM
22 | Cc1cc(F)ccc1NC(=O)C(=O)NCC(C)(C)CNC(=O)c1ccc(Nc2nc(NC3(c4ccc(Cl)cc4)CC3)nc(OCC(F)(F)F)n2)cc1 [Compound 3061] | – | 10 to 10000 | –
23 | CC(C)(CNC(=O)C(=O)N1CCCCC1)CNC(=O)c1ccc(Nc2nc(NC3(c4ccc(Cl)cc4)CC3)nc(OCC(F)(F)F)n2)cc1 [Compound 1550] | 10 to 10000 | – | –
24 | COC(=O)[C@H](CCNC(=O)C(=O)Nc1ccc(CNC(N)=O)cc1)NC(=O)c1ccc(Nc2nc(NC3(c4ccc(Cl)cc4)CC3)nc(OCC(F)(F)F)n2)cc1 [Compound 3314] | – | 10 to 10000 | –
25 | O=C(NC[C@H](NC(=O)c1ccc(Nc2nc(NC3(c4ccc(Cl)cc4)CC3)nc(OCC(F)(F)F)n2)cc1)C(=O)Cl)C(=O)Nc1ccc(OCCN2CCCCC2)nc1 [Compound 3791] | – | – | EC50 [4]: 10 to 10000 pM
26 | CC(C)(CNC(=O)C(=O)Nc1ccc(S(C)(=O)=O)cc1)CNC(=O)c1ccc(Nc2nc(NC3(c4ccc(Cl)cc4)CC3)nc(OCC(F)(F)F)n2)cc1 [Compound 3254] | – | 10 to 10000 | –
27 | CC(C)(C)CNC(=O)C(=O)NC[C@H](NC(=O)c1ccc(Nc2nc(NC3(c4ccc(Cl)cc4)CC3)nc(OCC(F)(F)F)n2)cc1)C(=O)O [Compound 1450] | 10 to 10000 | – | –
28 | COc1ccc(NC(=O)C(=O)NCC(C)(C)CNC(=O)c2ccc(Nc3nc(NC4(c5ccc(Cl)cc5)CC4)nc(OCC(F)(F)F)n3)cc2F)cc1 [Compound 3557] | – | 10 to 10000 | –
29 | COc1ccc(-c2ccccc2)c(NC(=O)C(=O)NCC(C)(C)CNC(=O)c2ccc(Nc3nc(NC4(c5ccc(Cl)cc5)CC4)nc(OCC(F)(F)F)n3)cc2)c1 [Compound 3014] | – | 10 to 10000 | –
30 | O=C(NCC(O)CNC(=O)c1ccc(Nc2nc(NC3(c4ccc(Cl)cc4)CC3)nc(OCC(F)(F)F)n2)cc1)C(=O)Nc1cc(F)cc(F)c1 (stereo not shown) [Compound 3461] | – | 10 to 10000 | EC50 [3]: 27 pM
31 | COC(=O)[C@H](CNC(=O)C(=O)NCC1CCc2ccccc21)NC(=O)c1ccc(Nc2nc(NC3(c4ccc(Cl)cc4)CC3)nc(OCC(F)(F)F)n2)cc1 (stereo partly shown) [Compound 1303] | 10 to 10000 | – | –
32 | O=C(NCCc1ccncc1)C(=O)NC[C@H](NC(=O)c1ccc(Nc2nc(NC3(c4ccc(Cl)cc4)CC3)nc(OCC(F)(F)F)n2)cc1)C(=O)O [Compound 1400] | 10 to 10000 | – | EC50 [5]: 3770 pM
33 | COC(=O)[C@@H](CCNC(=O)C(=O)NCC1(CN2CCN(C)CC2)CC1)NC(=O)c1ccc(Nc2nc(NC3(c4ccc(Cl)cc4)CC3)nc(OCC(F)(F)F)n2)cc1 [Compound 1388] | 10 to 10000 | – | –
34 | COc1cc(NC(=O)C(=O)NCC(C)(C)CNC(=O)c2ccc(Nc3nc(NC4(c5ccc(Cl)cc5)CC4)nc(OCC(F)(F)F)n3)cc2)ccn1 [Compound 3251] | – | 10 to 10000 | –
